Results as given in US8017792B2, “1-thio-D-glucitol derivatives” (Taisho Pharmaceutical Co., Ltd., priority 2005, dated 2011).

Assays:
[1] = target: T1, Human SGLT1 (Homo sapiens, UniProt P13866); assay: Sodium-dependent sugar uptake inhibition test in CHO-K1 cells stably expressing human SGLT1 (Test Example 2); format: cell-based; settings: [14C]methyl-α-D-glucopyranoside 0.1 mM, 37° C., 30 minutes
T1 construct: expressed in transfected cells; host or cells: CHO-K1
T1 sequence (P13866 1-664): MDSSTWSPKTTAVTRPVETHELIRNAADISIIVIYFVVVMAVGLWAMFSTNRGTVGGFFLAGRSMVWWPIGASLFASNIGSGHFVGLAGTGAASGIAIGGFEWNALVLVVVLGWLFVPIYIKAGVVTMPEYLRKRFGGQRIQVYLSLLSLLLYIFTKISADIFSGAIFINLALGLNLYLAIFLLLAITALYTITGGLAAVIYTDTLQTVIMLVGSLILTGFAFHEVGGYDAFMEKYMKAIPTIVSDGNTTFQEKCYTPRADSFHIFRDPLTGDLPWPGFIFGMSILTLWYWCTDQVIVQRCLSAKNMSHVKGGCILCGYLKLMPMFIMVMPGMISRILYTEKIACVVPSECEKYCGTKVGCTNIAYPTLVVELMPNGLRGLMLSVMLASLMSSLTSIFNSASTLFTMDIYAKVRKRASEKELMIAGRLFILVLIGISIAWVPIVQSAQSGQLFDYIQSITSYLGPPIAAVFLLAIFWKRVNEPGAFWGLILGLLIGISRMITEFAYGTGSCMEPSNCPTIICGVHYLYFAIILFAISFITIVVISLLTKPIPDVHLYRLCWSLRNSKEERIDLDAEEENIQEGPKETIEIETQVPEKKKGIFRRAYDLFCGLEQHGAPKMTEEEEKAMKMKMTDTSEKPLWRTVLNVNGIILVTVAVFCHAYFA
Method: (§1) Human SGLT1 sequence (NM_000343) was reverse-transcripted from human small intestinal mRNA, then amplified, and then introduced into pCMV-tag5A from Stratagene Corporation. Human SGLT2 sequence (NM_003041) was prepared from human nephric mRNA as with the above method, and then introduced into pcDNA3.1+hygro from Invitrogen Corporation. Each cloned sequence was confirmed to be identical with the reported sequence.
(§2) CHO-K1 cells were transfected with the human SGLT1 and human SGLT2 expression vectors using Lipofectamine 2000 (Invitrogen Corporation). SGLT expression cells were cultured in the presence of geneticin (SGLT1) or hygromycin B (SGLT2) of the concentration of 500 μg/mL to select resistant strains. Cells were obtained using sugar uptake specific activity as an index in the following system.
(§3) Cells stably expressing human SGLT1 and human SGLT2 were used in the sodium-dependent sugar uptake activity inhibition test. Cells were incubated in 1 mL of a pretreatment buffer solution (140 mM choline chloride, 2 mM KCl, 1 mM CaCl2, 1 mM MgCl2, 10 mM HEPES/5 mM Tris, pH 7.4) for 20 minutes. The pretreatment buffer solution was removed and 200 μL of an uptake buffer containing test compounds (methyl-α-D-glucopyranoside containing [^14C]methyl-α-D-glucopyranoside (0.1 mM for SGLT1 inhibition, 1 mM for SGLT2 inhibition), 140 mM NaCl, 2 mM KCl, 1 mM CaCl2, 1 mM MgCl2, 10 mM HEPES/5 mM Tris, pH 7.4) were added, and uptake reaction was performed at 37° C. for 30 minutes (SGLT1) or for one hour (SGLT2). After the reaction, cells were washed with 1 mL of a washing buffer (10 mM methyl-α-D-glucopyranoside, 140 mM choline chloride, 2 mM KCl, 1 mM CaCl2, 1 mM MgCl2, 10 mM HEPES/5 mM Tris, pH 7.4) twice and dissolved in 400 μL of 0.2 M NaOH solution. After Aquazole 2 (Perkin Elmer Corporation) was added and mixed well, radioactivity was measured with a liquid scintillation counter (Beckman Coulter Corporation). A buffer for uptake which contained no test compound was prepared as a control group. Another buffer solution for uptake containing choline chloride in place of NaCl was also prepared for basic uptake.

[2] = target: T2, Human SGLT2 (Homo sapiens, UniProt P31639); assay: Sodium-dependent sugar uptake inhibition test in CHO-K1 cells stably expressing human SGLT2 (Test Example 2); format: cell-based; settings: for IC50: CHO-K1 cells, [14C]methyl-α-D-glucopyranoside 1 mM, 37° C., one hour; for SGLT1/SGLT2: ratio of IC50 human SGLT1 to IC50 human SGLT2
T2 construct: expressed in transfected cells; host or cells: CHO-K1
T2 sequence (P31639 1-672): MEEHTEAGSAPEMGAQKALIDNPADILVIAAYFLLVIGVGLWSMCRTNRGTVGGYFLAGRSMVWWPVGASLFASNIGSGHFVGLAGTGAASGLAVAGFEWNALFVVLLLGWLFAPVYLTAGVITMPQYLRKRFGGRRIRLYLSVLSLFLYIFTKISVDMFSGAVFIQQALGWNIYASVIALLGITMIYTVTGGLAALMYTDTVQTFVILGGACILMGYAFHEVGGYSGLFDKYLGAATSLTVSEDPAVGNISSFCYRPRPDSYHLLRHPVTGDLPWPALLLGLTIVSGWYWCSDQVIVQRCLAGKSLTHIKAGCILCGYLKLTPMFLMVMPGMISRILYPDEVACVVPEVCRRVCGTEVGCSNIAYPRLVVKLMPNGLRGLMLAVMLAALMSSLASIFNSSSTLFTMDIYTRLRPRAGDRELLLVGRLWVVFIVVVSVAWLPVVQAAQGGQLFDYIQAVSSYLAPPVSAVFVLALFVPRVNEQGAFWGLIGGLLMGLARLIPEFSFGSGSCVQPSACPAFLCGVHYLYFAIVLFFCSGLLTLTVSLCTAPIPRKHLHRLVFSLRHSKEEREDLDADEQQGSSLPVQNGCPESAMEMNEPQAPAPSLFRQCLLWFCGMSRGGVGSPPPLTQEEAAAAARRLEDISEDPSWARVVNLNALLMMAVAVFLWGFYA
Method: as §1, §2, §3

SMILES: CCc1ccc(Cc2cccc([C@@H]3S[C@H](CO)[C@@H](O)[C@H](O)[C@H]3O)c2)cc1 [Compound 74, (1S)-1,5-anhydro-1-[3-(4-ethylbenzyl)phenyl]-1-thio-D-glucitol]
- IC50 [1]: 15.3 µM
- IC50 [2]: 1.19 µM
- SGLT1/SGLT2 [2]: 12.8

SMILES: CCOc1ccc(Cc2cc([C@@H]3S[C@H](CO)[C@@H](O)[C@H](O)[C@H]3O)ccc2OC)cc1 [Compound 77, (1S)-1,5-Anhydro-1-[3-(4-ethoxybenzyl)-4-methoxyphenyl]-1-thio-D-glucitol]
- IC50 [1]: 8 µM
- IC50 [2]: 0.69 µM
- SGLT1/SGLT2 [2]: 11.6

SMILES: CCOc1ccc(Cc2ccc(OC)c([C@@H]3S[C@H](CO)[C@@H](O)[C@H](O)[C@H]3O)c2)cc1 [Compound 78, (1S)-1,5-Anhydro-1-[3-(4-ethoxybenzyl)-6-methoxy-phenyl]-1-thio-D-glucitol]
- IC50 [1]: 120 µM
- IC50 [2]: 1.04 µM
- SGLT1/SGLT2 [2]: 115.4

SMILES: CCOc1ccc(Cc2cc([C@@H]3S[C@H](CO)[C@@H](O)[C@H](O)[C@H]3O)c(OC)cc2OC)cc1 [Compound 80, (1S)-1,5-Anhydro-1-[4,6-dimethoxy-3-(4-ethoxybenzyl)phenyl]-1-thio-D-glucitol]
- IC50 [1]: 2.9 µM
- IC50 [2]: 0.19 µM

SMILES: CCOc1ccc(Cc2cc([C@@H]3S[C@H](CO)[C@@H](O)[C@H](O)[C@H]3O)ccc2F)cc1 [Compound 81, (1S)-1,5-Anhydro-1-[3-(4-ethoxybenzyl)-4-fluorophenyl]-1-thio-D-glucitol]
- IC50 [1]: 6.5 µM
- IC50 [2]: 0.6 µM
- SGLT1/SGLT2 [2]: 10.9

SMILES: CCOc1ccc(Cc2cc([C@@H]3S[C@H](CO)[C@@H](O)[C@H](O)[C@H]3O)ccc2O)cc1 [Compound 82, (1S)-1,5-Anhydro-1-[3-(4-ethoxybenzyl)-4-hydroxyphenyl]-1-thio-D-glucitol]
- IC50 [1]: 15 µM
- IC50 [2]: 3.78 µM
- SGLT1/SGLT2 [2]: 4.0

SMILES: CCOc1ccc(Cc2cc([C@@H]3S[C@H](CO)[C@@H](O)[C@H](O)[C@H]3O)ccc2C)cc1 [Compound 86, (1S)-1,5-Anhydro-1-[3-(4-ethoxybenzyl)-4-methylphenyl]-1-thio-D-glucitol]
- IC50 [1]: 1.1 µM
- IC50 [2]: 0.06 µM
- SGLT1/SGLT2 [2]: 18.3

SMILES: COc1ccc(Cc2cc([C@@H]3S[C@H](CO)[C@@H](O)[C@H](O)[C@H]3O)ccc2Cl)cc1 [Compound 88, (1S)-1,5-Anhydro-1-[4-chloro-3-(4-methoxybenzyl)phenyl]-1-thio-D-glucitol]
- IC50 [1]: 0.2 µM
- IC50 [2]: 0.08 µM
- SGLT1/SGLT2 [2]: 2.8

SMILES: CCOc1ccc(Cc2cc([C@@H]3S[C@H](CO)[C@@H](O)[C@H](O)[C@H]3O)c(OC)cc2C)cc1 [Compound 89, (1S)-1,5-anhydro-1-[3-(4-ethoxybenzyl)-6-methoxy-4-methylphenyl]-1-thio-D-glucitol]
- IC50 [1]: 6.3 µM
- IC50 [2]: 0.065 µM
- SGLT1/SGLT2 [2]: 97.5

SMILES: CCOc1ccc(Cc2cc([C@@H]3S[C@H](CO)[C@@H](O)[C@H](O)[C@H]3O)ccc2Cl)c(F)c1 [Compound 91, (1S)-1,5-Anhydro-1-[4-chloro-3-(2-fluoro-4-ethoxybenzyl)phenyl]-1-thio-D-glucitol]
- IC50 [1]: 1.7 µM
- IC50 [2]: 0.11 µM
- SGLT1/SGLT2 [2]: 15.5

SMILES: Cc1ccc(Cc2cc([C@@H]3S[C@H](CO)[C@@H](O)[C@H](O)[C@H]3O)ccc2Cl)cc1 [Compound 92, (1S)-1,5-Anhydro-1-[4-chloro-3-(4-methylbenzyl)phenyl]-1-thio-D-glucitol]
- IC50 [1]: 0.2 µM
- IC50 [2]: 0.03 µM
- SGLT1/SGLT2 [2]: 7.7

SMILES: CSc1ccc(Cc2cc([C@@H]3S[C@H](CO)[C@@H](O)[C@H](O)[C@H]3O)ccc2Cl)cc1 [Compound 93, (1S)-1,5-Anhydro-1-[4-chloro-3-(4-methylthiobenzyl)phenyl]-1-thio-D-glucitol]
- IC50 [1]: 0.4 µM
- IC50 [2]: 0.021 µM
- SGLT1/SGLT2 [2]: 21.0

SMILES: OC[C@H]1S[C@@H](c2ccc(Cl)c(Cc3ccc(O)cc3)c2)[C@H](O)[C@@H](O)[C@@H]1O [Compound 94, (1S)-1,5-Anhydro-1-[4-chloro-3-(4-hydroxybenzyl)phenyl]-1-thio-D-glucitol]
- IC50 [1]: 0.3 µM
- IC50 [2]: 0.25 µM
- SGLT1/SGLT2 [2]: 1.3

SMILES: CCc1ccc(Cc2cc([C@@H]3S[C@H](CO)[C@@H](O)[C@H](O)[C@H]3O)ccc2Cl)cc1 [Compound 95, (1S)-1,5-Anhydro-1-[4-chloro-3-(4-ethylbenzyl)phenyl]-1-thio-D-glucitol]
- IC50 [2]: 0.028 µM
- SGLT1/SGLT2 [2]: 22.3

SMILES: CC(C)c1ccc(Cc2cc([C@@H]3S[C@H](CO)[C@@H](O)[C@H](O)[C@H]3O)ccc2Cl)cc1 [Compound 96, (1S)-1,5-Anhydro-1-[4-chloro-3-(4-isopropylbenzyl)phenyl]-1-thio-D-glucitol]
- IC50 [1]: 7.3 µM
- IC50 [2]: 0.062 µM
- SGLT1/SGLT2 [2]: 116.3

SMILES: CCOc1ccc(Cc2cc([C@@H]3S[C@H](CO)[C@@H](O)[C@H](O)[C@H]3O)c(O)cc2C)cc1 [Compound 98, (1S)-1,5-Anhydro-1-[3-(4-ethoxybenzyl)-6-hydroxy-4-methylphenyl]-1-thio-D-glucitol]
- IC50 [1]: 0.1 µM
- IC50 [2]: 0.015 µM
- SGLT1/SGLT2 [2]: 6.5

SMILES: CCOc1ccc(Cc2cc([C@@H]3S[C@H](CO)[C@@H](O)[C@H](O)[C@H]3O)c(OC)cc2Cl)cc1 [Compound 99, (1S)-1,5-anhydro-1-[4-chloro-5-(4-ethoxybenzyl)-2-methoxyphenyl]-1-thio-D-glucitol]
- IC50 [1]: 5.6 µM
- IC50 [2]: 0.032 µM
- SGLT1/SGLT2 [2]: 178.6

SMILES: CCc1ccc(Cc2cc([C@@H]3S[C@H](CO)[C@@H](O)[C@H](O)[C@H]3O)c(OC)cc2C)cc1 [Compound 101, (1S)-1,5-Anhydro-1-[3-(4-ethylbenzyl)-6-methoxy-4-methylphenyl]-1-thio-D-glucitol]
- IC50 [1]: 2.6 µM
- IC50 [2]: 0.04 µM
- SGLT1/SGLT2 [2]: 63.1

SMILES: OC[C@H]1S[C@@H](c2cccc(Cc3ccc(-c4ccccc4)s3)c2)[C@H](O)[C@@H](O)[C@@H]1O [Compound 134]
- IC50 [2]: 2.91 µM

SMILES: CCOc1ccc(Cc2cncc([C@@H]3S[C@H](CO)[C@@H](O)[C@H](O)[C@H]3O)c2)cc1 [Compound 138, (1S)-1,5-anhydro-1-[5-(4-ethoxybenzyl)pyridin-3-yl]-1-thio-D-glucitol]
- IC50 [2]: 33 µM

SMILES: CCc1ccc(Cc2ccc([C@@H]3S[C@H](CO)[C@@H](O)[C@H](O)[C@H]3O)s2)cc1 [Compound 139, (1S)-1,5-anhydro-1-[5-(4-ethylbenzyl)thiophen-2-yl]-1-thio-D-glucitol]
- IC50 [2]: 114 µM
